The source of these data is PMC11649115, “In vitro safety evaluation of dopamine D3R antagonist, R-VK4-116, as a potential medication for the treatment of opioid use disorder” (PLOS ONE, 2024).

In one data set the target is T1, CYP1A2 (Homo sapiens, UniProt P05177).
T1 sequence (P05177 1-516): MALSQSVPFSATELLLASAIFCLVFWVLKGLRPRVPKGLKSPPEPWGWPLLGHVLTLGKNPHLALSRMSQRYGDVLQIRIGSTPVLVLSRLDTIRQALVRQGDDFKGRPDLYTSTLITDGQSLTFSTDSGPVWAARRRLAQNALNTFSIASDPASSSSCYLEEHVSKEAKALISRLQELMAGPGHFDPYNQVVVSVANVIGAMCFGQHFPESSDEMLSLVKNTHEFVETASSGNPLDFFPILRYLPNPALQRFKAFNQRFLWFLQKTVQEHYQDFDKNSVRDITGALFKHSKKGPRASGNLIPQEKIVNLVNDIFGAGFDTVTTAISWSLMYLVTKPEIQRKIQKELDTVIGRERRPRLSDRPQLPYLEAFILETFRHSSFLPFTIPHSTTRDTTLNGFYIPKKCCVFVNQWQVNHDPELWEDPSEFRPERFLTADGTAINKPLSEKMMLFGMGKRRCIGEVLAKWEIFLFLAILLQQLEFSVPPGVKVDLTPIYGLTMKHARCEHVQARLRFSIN
Put plainly: CYP inhibition in human liver microsomes. The following applies: human, microsomes. On the technique in general: Microsomes from liver hold many membrane-bound enzymes, among them those of drug oxidation.

In a further data set the target is T2, CYP2B6 (Homo sapiens, UniProt P20813).
T2 sequence (P20813 1-491): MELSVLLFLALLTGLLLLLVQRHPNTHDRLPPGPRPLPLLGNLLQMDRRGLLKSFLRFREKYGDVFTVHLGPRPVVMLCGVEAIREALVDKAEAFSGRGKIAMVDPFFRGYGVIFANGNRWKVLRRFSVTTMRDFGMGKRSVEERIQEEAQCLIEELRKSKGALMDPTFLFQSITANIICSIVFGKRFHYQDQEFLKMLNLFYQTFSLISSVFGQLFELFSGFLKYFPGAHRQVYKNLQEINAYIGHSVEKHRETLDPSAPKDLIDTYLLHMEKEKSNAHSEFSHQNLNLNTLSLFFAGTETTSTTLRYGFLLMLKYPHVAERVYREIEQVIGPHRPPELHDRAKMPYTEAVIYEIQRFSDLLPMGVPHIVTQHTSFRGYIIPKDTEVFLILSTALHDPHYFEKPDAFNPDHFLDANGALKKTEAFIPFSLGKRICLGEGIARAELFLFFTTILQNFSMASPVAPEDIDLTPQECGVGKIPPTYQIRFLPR
Briefly: CYP inhibition in human liver microsomes. Conditions: human, microsomes.

In the next data set the target is T3, CYP2C8 (Homo sapiens, UniProt P10632).
T3 sequence (P10632 1-490): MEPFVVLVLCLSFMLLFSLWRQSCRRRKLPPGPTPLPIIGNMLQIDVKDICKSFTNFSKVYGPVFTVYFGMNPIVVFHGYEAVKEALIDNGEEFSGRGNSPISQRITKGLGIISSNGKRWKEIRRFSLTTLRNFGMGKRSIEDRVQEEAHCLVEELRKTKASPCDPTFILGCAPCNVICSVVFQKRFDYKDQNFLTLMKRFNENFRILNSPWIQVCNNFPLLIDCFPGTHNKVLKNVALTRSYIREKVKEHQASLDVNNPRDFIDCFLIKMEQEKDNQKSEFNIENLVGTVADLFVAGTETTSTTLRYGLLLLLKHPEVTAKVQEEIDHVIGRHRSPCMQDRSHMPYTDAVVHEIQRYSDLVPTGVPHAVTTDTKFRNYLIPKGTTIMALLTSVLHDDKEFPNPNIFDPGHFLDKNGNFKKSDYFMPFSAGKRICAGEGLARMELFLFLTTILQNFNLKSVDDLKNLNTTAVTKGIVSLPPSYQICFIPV
Briefly: CYP inhibition in human liver microsomes. The following applies: human, microsomes.

In another data set the target is CYP2C9 (Homo sapiens, UniProt P11712). Briefly: CYP inhibition in human liver microsomes. The following applies: human, microsomes.
CYP2C9, sequence (P11712 whole entry): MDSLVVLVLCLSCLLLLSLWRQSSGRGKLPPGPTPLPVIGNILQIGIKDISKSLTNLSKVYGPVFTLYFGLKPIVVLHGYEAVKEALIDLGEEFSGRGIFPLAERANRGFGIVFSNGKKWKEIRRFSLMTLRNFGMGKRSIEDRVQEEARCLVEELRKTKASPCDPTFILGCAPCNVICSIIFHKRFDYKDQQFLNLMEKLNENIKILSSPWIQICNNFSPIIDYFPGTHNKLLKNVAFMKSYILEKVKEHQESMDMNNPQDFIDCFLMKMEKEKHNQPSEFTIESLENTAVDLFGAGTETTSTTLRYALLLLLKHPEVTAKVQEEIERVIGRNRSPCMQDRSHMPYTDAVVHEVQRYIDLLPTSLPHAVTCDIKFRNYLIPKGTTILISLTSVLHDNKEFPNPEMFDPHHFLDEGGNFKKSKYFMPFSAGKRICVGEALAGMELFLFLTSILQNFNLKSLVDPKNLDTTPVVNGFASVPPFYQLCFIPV
For the next data set, the target named is CYP2C19 (Homo sapiens, UniProt P33261). Briefly: CYP inhibition in human liver microsomes. Conditions: human, microsomes.
CYP2C19, sequence (P33261 whole entry): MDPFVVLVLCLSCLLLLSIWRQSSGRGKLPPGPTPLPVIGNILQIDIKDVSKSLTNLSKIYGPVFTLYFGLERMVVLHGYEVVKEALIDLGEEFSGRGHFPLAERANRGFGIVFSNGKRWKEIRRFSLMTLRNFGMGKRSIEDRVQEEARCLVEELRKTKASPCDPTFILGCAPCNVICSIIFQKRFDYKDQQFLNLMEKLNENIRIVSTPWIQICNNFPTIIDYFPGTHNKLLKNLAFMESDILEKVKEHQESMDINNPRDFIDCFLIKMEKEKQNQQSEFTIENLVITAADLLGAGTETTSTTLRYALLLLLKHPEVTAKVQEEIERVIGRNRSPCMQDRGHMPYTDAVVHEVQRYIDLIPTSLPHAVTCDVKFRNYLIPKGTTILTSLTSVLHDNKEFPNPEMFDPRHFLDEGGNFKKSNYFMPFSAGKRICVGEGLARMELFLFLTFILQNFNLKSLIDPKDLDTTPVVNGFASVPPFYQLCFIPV
In a further data set the target is CYP2D6 (Homo sapiens, UniProt P10635). Briefly: CYP inhibition in human liver microsomes. Conditions: human, microsomes.
CYP2D6, sequence (P10635 whole entry): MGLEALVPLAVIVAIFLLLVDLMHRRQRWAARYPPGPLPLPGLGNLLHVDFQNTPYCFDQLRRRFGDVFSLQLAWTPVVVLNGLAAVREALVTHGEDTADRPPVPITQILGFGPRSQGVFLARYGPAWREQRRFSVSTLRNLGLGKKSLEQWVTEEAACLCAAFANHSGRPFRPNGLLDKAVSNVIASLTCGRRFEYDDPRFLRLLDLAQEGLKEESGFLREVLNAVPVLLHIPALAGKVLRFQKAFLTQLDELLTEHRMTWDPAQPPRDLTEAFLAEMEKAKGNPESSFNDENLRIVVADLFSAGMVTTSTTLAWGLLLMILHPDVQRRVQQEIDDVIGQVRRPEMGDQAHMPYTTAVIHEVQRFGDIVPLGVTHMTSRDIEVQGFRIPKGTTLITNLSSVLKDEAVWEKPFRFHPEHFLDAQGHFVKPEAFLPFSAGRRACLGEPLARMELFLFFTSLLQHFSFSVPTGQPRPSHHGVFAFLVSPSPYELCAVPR
For a further data set, the target named is CYP3A4 (Homo sapiens, UniProt P08684). Briefly: CYP inhibition in human liver microsomes.
CYP3A4, sequence (P08684 2-503): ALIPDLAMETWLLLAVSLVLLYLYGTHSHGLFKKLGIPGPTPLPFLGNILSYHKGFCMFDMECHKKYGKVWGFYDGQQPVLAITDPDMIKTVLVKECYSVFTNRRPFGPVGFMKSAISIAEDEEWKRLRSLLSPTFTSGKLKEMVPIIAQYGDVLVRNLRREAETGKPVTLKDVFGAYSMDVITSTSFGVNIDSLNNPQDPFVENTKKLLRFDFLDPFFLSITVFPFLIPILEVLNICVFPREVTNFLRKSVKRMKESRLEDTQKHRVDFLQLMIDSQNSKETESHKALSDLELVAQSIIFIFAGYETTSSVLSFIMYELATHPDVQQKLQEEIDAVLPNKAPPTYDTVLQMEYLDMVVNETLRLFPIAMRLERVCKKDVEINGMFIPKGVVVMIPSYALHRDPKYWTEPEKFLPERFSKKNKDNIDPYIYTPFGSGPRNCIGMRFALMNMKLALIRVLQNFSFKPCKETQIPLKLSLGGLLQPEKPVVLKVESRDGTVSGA
In the next data set the target is T4, OATP1B1 (Homo sapiens, UniProt Q9Y6L6).
T4 construct: expressed in transfected cells; host or cells: MDCK-II cells
T4 sequence (Q9Y6L6 1-691): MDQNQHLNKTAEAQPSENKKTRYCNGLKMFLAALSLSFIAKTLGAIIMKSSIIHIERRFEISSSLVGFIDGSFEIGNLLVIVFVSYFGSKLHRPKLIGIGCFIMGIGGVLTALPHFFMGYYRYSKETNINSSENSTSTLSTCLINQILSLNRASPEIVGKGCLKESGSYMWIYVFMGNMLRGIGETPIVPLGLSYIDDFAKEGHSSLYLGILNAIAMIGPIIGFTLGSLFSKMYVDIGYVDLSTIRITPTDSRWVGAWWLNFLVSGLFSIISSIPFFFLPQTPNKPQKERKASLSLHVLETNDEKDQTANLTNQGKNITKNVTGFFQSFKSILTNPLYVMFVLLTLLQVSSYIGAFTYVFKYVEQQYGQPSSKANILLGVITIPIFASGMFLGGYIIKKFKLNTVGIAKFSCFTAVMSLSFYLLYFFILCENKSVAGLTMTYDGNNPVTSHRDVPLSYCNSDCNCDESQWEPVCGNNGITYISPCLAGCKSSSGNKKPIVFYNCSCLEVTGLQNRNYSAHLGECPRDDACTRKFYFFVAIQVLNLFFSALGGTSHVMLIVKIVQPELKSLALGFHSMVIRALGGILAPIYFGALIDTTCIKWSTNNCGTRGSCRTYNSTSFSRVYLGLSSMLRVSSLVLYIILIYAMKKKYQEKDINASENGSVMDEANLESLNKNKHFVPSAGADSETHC
Briefly: Transporter mediated assay (substrate/inhibitor), MDCK-II cells. It is filed as in vitro ADME. Conditions: human, polarized monolayer of MDCK-II cells expressing OATP1B1; OATP1B1, No BSA, 100 μM.

For the next data set, the target named is T5, OATP1B3 (Homo sapiens, UniProt Q9NPD5).
T5 construct: expressed in transfected cells; host or cells: MDCK-II cells
T5 sequence (Q9NPD5 1-702): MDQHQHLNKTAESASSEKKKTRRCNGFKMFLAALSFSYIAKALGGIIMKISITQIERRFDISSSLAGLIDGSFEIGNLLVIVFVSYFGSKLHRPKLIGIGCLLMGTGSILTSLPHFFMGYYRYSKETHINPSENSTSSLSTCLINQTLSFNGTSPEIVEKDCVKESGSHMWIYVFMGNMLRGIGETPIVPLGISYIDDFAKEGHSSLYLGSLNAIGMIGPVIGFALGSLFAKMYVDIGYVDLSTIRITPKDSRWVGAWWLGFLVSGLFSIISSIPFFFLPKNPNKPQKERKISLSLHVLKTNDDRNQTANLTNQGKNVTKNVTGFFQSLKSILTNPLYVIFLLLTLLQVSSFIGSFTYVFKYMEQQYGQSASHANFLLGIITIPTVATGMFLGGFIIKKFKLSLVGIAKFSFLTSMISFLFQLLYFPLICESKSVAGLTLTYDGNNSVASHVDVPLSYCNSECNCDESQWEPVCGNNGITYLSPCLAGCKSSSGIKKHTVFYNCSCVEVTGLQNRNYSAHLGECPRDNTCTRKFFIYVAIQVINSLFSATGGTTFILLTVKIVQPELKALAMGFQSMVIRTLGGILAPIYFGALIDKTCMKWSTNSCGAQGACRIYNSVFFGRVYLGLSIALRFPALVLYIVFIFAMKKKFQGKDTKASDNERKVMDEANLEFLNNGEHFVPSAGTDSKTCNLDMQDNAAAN
The data set is described as above. It is filed as in vitro ADME. The following applies: human, polarized monolayer of MDCK-II cells expressing OATP1B3; OATP1B3, No BSA, 100 μM.

Another data set deals with T6, OAT3 (Homo sapiens, UniProt Q8TCC7).
T6 construct: expressed in transfected cells; host or cells: MDCK-II cells
T6 sequence (Q8TCC7 1-542): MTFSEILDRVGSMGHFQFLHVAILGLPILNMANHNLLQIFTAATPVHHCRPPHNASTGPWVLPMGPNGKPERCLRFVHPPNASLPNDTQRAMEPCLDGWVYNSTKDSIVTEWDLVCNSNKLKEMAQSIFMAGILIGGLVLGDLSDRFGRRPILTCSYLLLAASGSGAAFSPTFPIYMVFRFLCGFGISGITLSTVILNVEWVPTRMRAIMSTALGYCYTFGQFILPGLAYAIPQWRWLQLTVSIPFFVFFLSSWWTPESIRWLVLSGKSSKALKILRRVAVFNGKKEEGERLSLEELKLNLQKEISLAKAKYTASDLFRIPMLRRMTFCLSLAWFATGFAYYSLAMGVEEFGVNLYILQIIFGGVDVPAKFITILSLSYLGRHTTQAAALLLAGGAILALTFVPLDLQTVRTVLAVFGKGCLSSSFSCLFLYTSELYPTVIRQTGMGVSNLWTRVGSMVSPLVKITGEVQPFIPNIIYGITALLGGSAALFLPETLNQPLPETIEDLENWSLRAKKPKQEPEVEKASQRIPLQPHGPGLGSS
Described as above. It is filed as in vitro ADME. Conditions: human; OAT3, No BSA, 100 μM.

Another data set has as its system cardiovascular effects. Conditions: dogs ref 4, 9; cited from earlier work.
Another data set concerns the target T7, MATE1 (Homo sapiens, UniProt Q96FL8).
T7 construct: expressed in transfected cells; host or cells: MDCK-II cells
T7 sequence (Q96FL8 1-570): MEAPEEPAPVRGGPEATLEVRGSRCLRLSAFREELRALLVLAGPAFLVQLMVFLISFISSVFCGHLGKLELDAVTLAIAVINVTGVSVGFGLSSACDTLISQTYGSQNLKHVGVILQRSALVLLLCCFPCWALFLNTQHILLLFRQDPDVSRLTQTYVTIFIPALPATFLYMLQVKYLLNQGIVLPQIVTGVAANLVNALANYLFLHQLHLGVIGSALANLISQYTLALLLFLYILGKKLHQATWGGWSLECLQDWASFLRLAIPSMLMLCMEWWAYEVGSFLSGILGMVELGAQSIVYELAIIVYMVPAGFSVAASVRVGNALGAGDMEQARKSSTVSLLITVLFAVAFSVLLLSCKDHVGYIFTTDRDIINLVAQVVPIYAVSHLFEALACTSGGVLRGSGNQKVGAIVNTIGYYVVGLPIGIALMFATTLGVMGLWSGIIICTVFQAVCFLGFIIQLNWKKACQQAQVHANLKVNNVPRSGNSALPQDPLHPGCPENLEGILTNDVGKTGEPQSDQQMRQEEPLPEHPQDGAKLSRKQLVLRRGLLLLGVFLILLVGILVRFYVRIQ
Briefly: Transporter mediated assay (substrate/inhibitor), MDCK-II cells. It is filed as in vitro ADME. Conditions: human, polarized monolayer of MDCK-II cells expressing MATE1; MATE1, No BSA, 100 μM.

The next data set deals with T8, MATE2-K (Homo sapiens, UniProt Q86VL8).
T8 construct: expressed in transfected cells; host or cells: MDCK-II cells
T8 sequence (Q86VL8 1-566 isoform Q86VL8-3): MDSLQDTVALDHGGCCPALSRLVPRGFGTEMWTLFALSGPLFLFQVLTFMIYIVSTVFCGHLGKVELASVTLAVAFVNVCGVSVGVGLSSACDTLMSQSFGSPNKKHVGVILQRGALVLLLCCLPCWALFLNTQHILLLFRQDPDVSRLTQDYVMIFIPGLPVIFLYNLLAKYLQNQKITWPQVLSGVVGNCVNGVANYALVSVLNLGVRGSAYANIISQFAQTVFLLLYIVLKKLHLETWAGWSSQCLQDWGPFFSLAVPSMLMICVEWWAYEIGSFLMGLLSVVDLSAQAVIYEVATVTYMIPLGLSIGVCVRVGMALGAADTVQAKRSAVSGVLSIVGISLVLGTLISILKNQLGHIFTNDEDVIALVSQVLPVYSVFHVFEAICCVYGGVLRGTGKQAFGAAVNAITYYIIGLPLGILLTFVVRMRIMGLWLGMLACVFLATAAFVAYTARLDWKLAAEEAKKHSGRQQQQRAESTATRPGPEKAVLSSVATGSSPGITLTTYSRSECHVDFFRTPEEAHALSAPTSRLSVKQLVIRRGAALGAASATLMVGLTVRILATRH
The data set is described as above. The following applies: human, polarized monolayer of MDCK-II cells expressing MATE2-K, No BSA, 100 μM. It is filed as in vitro ADME.

Setting [1] is: CYP activity (% of Control) 3A4 (Midazolam), substrate midazolam.
Where [2] appears, read: CYP activity (% of Control) 3A4 (Testosterone), substrate testosterone.

Protocol for MATE1: (§1) The MDCK-II cells were treated to express the transporter of interest. The transport of each probe substrate was determined by radiometric detection (Fig 1 in S1 File). […] For the uptake assay, the net transporter-mediated uptake-rate (V) of the substrate by each SLC transporter was calculated as follows: Transporter–mediatedupdaterate(pmol/min/cm^2)=(Cellularaccumulationincellsexpressingthetransporter)−(Meancellularaccumulationincontrolcells)/Surfacearea×incubationtime
(§2) Fold of activity and percent inhibition were determined as follows: Foldofactivity=(Meanuptakerate)transporterexpressingcells/(Meanuptakerate)controlcells Percentinhibition=100−100×(Transport‐mediatedupdaterate)withinhibitor/(Transport‐mediatedupdaterate)vehiclecontrol
Protocol for MATE2-K: The MDCK-II cells were treated to express the transporter of interest. […] For the uptake assay, the net transporter-mediated uptake-rate (V) of the substrate by each SLC transporter was calculated as follows: Transporter–mediatedupdaterate(pmol/min/cm^2)=(Cellularaccumulationincellsexpressingthetransporter)−(Meancellularaccumulationincontrolcells)/Surfacearea×incubationtime
as §2
Protocol for OAT3: as §1, §2
Protocol for OATP1B1: as §1, §2
Protocol for OATP1B3: as §1, §2

In the case of `C=C(C)[C@@H]1CCC2=CC(=O)C[C@@H](C)[C@]2(C)C1` [Nootkatone], the activity at 20 min, 30 µM stood at 91.3 ± 4.8% on CYP1A2; 23.8 ± 2.7% at CYP2B6; 78.8 ± 12.5% at CYP2C8; 84.6 ± 8.5% on CYP2C9; 57.3 ± 5.7% on CYP2C19; 91.9 ± 8.4% at CYP2D6. For the same compound, the activity at 20 min, 30 µM on CYP3A4 (setting [1]) came out at 84.5 ± 4%; at CYP3A4 (setting [2]), 79.4 ± 5.4%.
As to `CO[C@H]1/C=C/O[C@@]2(C)Oc3c(C)c(O)c4c(O)c(c(/C=N/N5CCN(C)CC5)c(O)c4c3C2=O)NC(=O)/C(C)=C\C=C\[C@H](C)[C@H](O)[C@@H](C)[C@@H](O)[C@@H](C)[C@H](OC(C)=O)[C@@H]1C` [Rifampicin, reference compound], the inhibition at 100 µM was determined as 98.3 ± 1.37% at OATP1B1 and 99.2 ± 0.26% against OATP1B3.
As to `S=P(N1CC1)(N1CC1)N1CC1` [ThioTEPA], the activity at 20 min, 10 µM on CYP1A2 is 93.8 ± 4.3%; at CYP2B6 it was 52 ± 0.1%; on CYP2C8, 96.8 ± 4.4%; on CYP2C9, 92.9 ± 1.5%; at CYP2C19, 108 ± 4.3%; on CYP2D6, 90.7 ± 2%. Further, the activity at 20 min, 10 µM was 92.6 ± 2.2% at CYP3A4 (setting [1]) and 91.4 ± 1.3% on CYP3A4 (setting [2]).
For `CCCN(CCC)S(=O)(=O)c1ccc(C(=O)O)cc1` [probenecid, reference compound], on OAT3, 100 µM produced 95.3 ± 0.73% inhibition.
Regarding `Cc1ncoc1-c1nnc(SCCCN2C[C@@H]3C[C@]3(c3ccc(C(F)(F)F)cc3F)C2)n1C` [GSK598,809], in the data set on cardiovascular effects, the “cardiovascular effect in combination with cocaine” value is reported as “hypertension”.
On to `CN/C(=N/CCSCc1nc[nH]c1C)NC#N` [cimetidine, reference compound], for which the inhibition at 100 µM worked out at 99.3 ± 0.22% on MATE1 and 95.9 ± 0.59% on MATE2-K.

In general, inhibition refers to the drop in the measured response relative to a control, in per cent. A lower inhibition goes with little suppression.
